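A five-concentration, 48-hour dose response in 96-well plates underlies each endpoint, interpolated linearly between surrounding concentrations. TGI: concentration producing complete growth inhibition.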
Columns and labels:
Assay in all cases: DTP human tumour cell line panel, 48 h
KM12 colon = test system: KM12 colon
BT-549 breast = test system: BT-549 breast
SK-MEL-2 melanoma = test system: SK-MEL-2 melanoma
MALME-3M melanoma = test system: MALME-3M melanoma
HCC-2998 colon = test system: HCC-2998 colon
HS 578T breast = test system: HS 578T breast
SF-539 CNS = test system: SF-539 CNS
EKVX NSCLC = test system: EKVX NSCLC
HL-60(TB) leukemia = test system: HL-60(TB) leukemia
LOX IMVI melanoma = test system: LOX IMVI melanoma

Row | SMILES | TGI (KM12 colon) [µM] | TGI (BT-549 breast) [µM] | TGI (SK-MEL-2 melanoma) [µM] | TGI (MALME-3M melanoma) [µM] | TGI (HCC-2998 colon) [µM] | TGI (HS 578T breast) [µM] | TGI (SF-539 CNS) [µM] | TGI (EKVX NSCLC) [µM] | TGI (HL-60(TB) leukemia) [µM] | TGI (LOX IMVI melanoma) [µM]
1 | CCOS(=O)(=O)c1ccc(-c2c3nc(c(-c4ccc(S(=O)(=O)OCC)cc4)c4ccc([nH]4)c(-c4ccc(S(=O)(=O)OCC)cc4)c4nc(c(-c5ccc(S(=O)(=O)OCC)cc5)c5ccc2[nH]5)C=C4)C=C3)cc1 | > 31.6 | > 31.6 | > 31.6 | > 31.6 | > 31.6 | > 31.6 | > 31.6 | > 31.6 | > 31.6 | 
2 | COc1ccc(-c2nnc3n(C)c4ccccc4n3c2=O)cc1 | > 100 | > 100 | > 100 | > 100 | > 100 | > 100 | > 100 | > 100 | > 100 | > 100
3 | O=S(=O)(c1ccccc1)c1ccc(-c2nc(-c3ccc4c(c3)Sc3ccccc3S4)cs2)cc1 | > 100 | 91.7 |  | > 100 | > 100 | > 100 | > 100 | > 100 | > 100 | > 100
4 | COc1cccc(OC)c1NC(=O)C(=O)Nn1c(NNC(=O)c2ccncc2)nc2ccccc2c1=O | > 100 | > 100 | > 100 | > 100 | > 100 | > 100 | > 100 | > 100 | > 100 | > 100
5 | N#CC1=C(N)N(/N=C/c2ccco2)C(c2ccco2)C1(C#N)C#N (stereo not drawn) | 28.7 | 34.9 | 47.4 | 43.4 | 34.7 | 97.2 | 48.9 | 47.3 | 7.69 | 28.2
6 | O=C(NC1C/C(=N/O)c2c(Br)sc(Br)c21)C(F)(F)F (stereo not drawn) | > 100 | > 100 | 90.1 | > 100 | > 100 | 36.3 | 38.9 | > 100 | > 100 | > 100
7 | CN(C)CC1CCC/C(=C\c2ccc(OC(=O)/C=C/c3ccc(Cl)cc3)cc2)C1=O (stereo not drawn) | 4.38 | 14.2 | 25.1 | 16.3 | 13.1 | 24.6 | 5.79 | 15.2 | 3.22 | 9.39
8 | C(=N\NC1=NCCN1)/c1ccc2ccccc2c1 | 28 | 25.3 | 38 | 28.3 | 31.2 | 43.3 | 39.4 | 50.8 | 34.5 | 26.7
9 | O=c1c2c3c(sc2nc2n1NC=NN2)CCCC3 | 34.1 | 31.8 | > 66.6 | 55.3 | 51.7 | 52.7 | 36.9 | 35.9 | 7.34 | 4.88

Source: PubChem BioAssay (NCI)
